Assays:
[1] = tested on: more than 80 receptors and enzymes; experiment: PanLab screening against more than 80 receptors and enzymes; conditions: concentrations greater than 10 μM
[2] = Oral pharmacokinetics in rats; format: in vivo

SMILES: O=C1CC[C@H](/C=C/C(O)C(F)(F)c2ccccc2)N1CCCCCCc1nnn[nH]1 (stereo partly drawn) [Compound 7, (5R)-5[(1E)-4,4-difluoro-3-hydroxy-4-phenylbut-1-enyl]-1-[6-(1H-tetraazol-5-yl)hexyl]pyrrolidin-2-one]
- activity in PanLab screening [1]: no significant activities
- terminal elimination half life [2]: good
- oral bioavailability ([2]; oral): good

From patent US20050239872A1, “1,5-distributed pyrrolid-2-one derivatives for use as ep4 receptor agonists in the teatment of eye diseases such as glaucoma” (priority 2002, published 2005)
